Source: patent US8759295B2, “Peptide-peptidase inhibitor conjugates and methods of using same” (Amylin Pharmaceuticals, LLC, priority 2006, dated 2014)
Like-named read-outs stand apart in the source and are kept apart here.

Legend:
ACE from rabbit lung = target: T1, ACE from rabbit lung (Oryctolagus cuniculus, UniProt P12822); assay: ACE inhibition assay; assay type: biochemical
T1 construct: ACE from rabbit lung, Sigma Chemical Co., St. Louis, Mo; purchased Sigma Chemical Co., St. Louis, Mo; host or cells: rabbit lung (tissue-derived enzyme)
T1 sequence (P12822 34-1310): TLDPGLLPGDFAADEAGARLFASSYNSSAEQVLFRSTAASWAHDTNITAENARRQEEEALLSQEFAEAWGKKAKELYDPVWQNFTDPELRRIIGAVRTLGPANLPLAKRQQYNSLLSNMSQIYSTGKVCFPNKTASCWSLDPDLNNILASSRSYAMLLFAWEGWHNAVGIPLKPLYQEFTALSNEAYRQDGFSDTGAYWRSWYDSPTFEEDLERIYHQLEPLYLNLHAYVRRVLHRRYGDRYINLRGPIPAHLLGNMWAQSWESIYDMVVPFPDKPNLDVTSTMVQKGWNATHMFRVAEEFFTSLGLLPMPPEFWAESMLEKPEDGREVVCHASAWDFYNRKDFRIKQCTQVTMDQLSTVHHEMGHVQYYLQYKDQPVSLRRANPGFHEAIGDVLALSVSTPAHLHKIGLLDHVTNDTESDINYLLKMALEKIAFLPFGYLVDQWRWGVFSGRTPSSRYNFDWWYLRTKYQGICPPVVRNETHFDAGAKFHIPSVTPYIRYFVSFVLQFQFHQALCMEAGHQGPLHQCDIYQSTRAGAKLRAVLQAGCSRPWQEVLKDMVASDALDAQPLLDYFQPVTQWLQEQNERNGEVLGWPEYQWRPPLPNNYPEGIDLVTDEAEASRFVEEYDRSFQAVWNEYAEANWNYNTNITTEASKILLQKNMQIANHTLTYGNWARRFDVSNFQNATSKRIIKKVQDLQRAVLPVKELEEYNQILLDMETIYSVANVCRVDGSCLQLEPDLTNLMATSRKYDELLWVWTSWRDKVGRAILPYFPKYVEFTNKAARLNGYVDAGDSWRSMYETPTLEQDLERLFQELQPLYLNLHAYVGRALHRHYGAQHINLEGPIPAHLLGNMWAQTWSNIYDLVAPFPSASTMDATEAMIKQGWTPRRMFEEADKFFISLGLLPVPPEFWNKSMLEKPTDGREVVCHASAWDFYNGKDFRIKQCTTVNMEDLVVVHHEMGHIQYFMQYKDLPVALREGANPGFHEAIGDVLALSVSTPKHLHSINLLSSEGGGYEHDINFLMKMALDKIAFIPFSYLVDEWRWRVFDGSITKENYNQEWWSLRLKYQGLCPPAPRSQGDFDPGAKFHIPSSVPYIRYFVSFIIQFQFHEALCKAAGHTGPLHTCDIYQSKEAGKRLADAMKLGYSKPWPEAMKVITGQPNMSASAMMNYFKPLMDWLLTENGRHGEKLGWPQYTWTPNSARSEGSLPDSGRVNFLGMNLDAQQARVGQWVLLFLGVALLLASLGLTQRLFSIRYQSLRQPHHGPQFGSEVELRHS
Experimental: Peptide-ACE peptidase inhibitor conjugate compounds were assessed in an ACE inhibition assay using purified ACE enzyme and chromogenic substrates. An ACE stock solution was prepared by dissolving 0.1 unit of enzyme (ACE from rabbit lung, Sigma Chemical Co., St. Louis, Mo.) in 0.640 mL of HEPES buffer (0.1 M, pH=8). A 2 mM stock solution of substrate (N-benzyloxycarbonyl-Phe-His-Leu-OH) dissolved in methanol. The ACE inhibitor compounds were dissolved in phosphate buffer (0.1 M, pH=8) at concentrations of 0.0, 1, 10, 20, 60 and 100 μM. For the inhibition assay, six 2 mL microcentrifuge tubes were prepared containing 1.45 mL of phosphate buffer pH=8, 0.05 mL of 10% NaCl and 0.015 mL of substrate solution. To each microcentrifuge tube was added 0.015 mL of one of the ACE inhibitor compound's stock solutions. The solutions were heated at 37° C. for about 5 minutes. […] Initial rates were determined from linear portions of product release curves. […] Apparent binding constants (Kd^app or Ki^app) of inhibitors to ACE were determined by fitting inhibition curves (initial rate vs. inhibitor concentration) to equation:
[formula] where v0 is reaction rate in the absence of inhibitor and [I]—inhibitor concentration. Fits were done by least-squares method using KaleidaGraph 3.6 (Synergy Software, Reading Pa.).

Recombinant DPP-IV [1] = target: T2, Recombinant DPP-IV (Homo sapiens, UniProt P27487); assay: DPP-IV resistance assay by mass spectrometry
T2 sequence (P27487 whole entry, species assumed, the tested form may be a part): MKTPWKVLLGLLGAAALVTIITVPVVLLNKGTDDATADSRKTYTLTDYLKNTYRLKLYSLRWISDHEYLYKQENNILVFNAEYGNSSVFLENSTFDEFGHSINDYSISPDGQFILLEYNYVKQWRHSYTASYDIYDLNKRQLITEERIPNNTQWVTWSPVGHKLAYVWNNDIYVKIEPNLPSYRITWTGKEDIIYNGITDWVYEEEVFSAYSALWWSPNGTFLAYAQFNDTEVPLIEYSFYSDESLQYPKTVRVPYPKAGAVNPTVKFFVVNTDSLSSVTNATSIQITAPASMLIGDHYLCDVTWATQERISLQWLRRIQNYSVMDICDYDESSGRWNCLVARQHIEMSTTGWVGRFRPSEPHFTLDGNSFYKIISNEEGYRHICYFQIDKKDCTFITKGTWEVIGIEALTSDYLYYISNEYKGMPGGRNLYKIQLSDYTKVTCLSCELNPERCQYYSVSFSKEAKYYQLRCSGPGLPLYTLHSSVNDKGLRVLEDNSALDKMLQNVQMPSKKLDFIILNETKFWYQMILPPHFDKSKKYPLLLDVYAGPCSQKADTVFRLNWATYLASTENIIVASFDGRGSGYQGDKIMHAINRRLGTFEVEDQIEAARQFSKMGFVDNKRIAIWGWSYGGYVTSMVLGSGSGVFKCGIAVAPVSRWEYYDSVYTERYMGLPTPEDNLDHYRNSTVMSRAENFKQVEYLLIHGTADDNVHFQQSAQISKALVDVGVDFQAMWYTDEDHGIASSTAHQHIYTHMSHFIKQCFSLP
Experimental: The peptides were then desalted and concentrated on a C18 peptide micro trap (Michrom Bioresources, Inc., Auburn, Calif.) prior to introduction to a LTQ FT™ mass spectrometer (Thermo-Electron Corp., Waltham, Mass.) via an autosampler (Michrom Bioresources, Inc.). Peptides were eluted from a C5 packed 75 μm fused silica pico-frit column (New Objective, Inc., Woburn, Mass.) using a 5-60% acetonitrile/water gradient over 50 minutes at a flow rate of 500 nl/min. Extracted ion mass windows for the calculated m/z values of the most dominant charge states were used to search for both the parent compound and the theoretical hydrolyzed products within a given chromatogram. Exact mass was confirmed for each charge state by FT. The percentage of hydrolysis catalyzed by DPP-IV was estimated by dividing the area of product ions by the area of the total (parent+product) ions.
The estimated cleavage product conversion is based on the ratio of the ion extract area (indicated on top of the peaks) for [product ion]^5+ over that for total ions ([Mother Ion]^5++[product ion]^5+). The m/z ratios used to search for the expected ions are listed on the right side of the plots.

NIH/Swiss mice = assay: Oral glucose tolerance test (OGTT), glucose lowering; settings: IP
[2] = human, kidney or brush border membranes, 4 h, pH 7.4
Experimental: The tubes were incubated in VorTemp 56™ (Eurotech Labs, UK) at 37° C. vortexed at 500 RPM. At time points of 0, 1, 2, 3, 4, and 5 hours, 200 μl STOP solution (50% ACN, 1% formic acid) was added to a given tube, and the samples were allowed to incubate until the end of the experiment. The samples were collected after 5 hours, centrifuged, and 200 μl of the supernatants were transferred into mass spectrometry vials. The intensities of the mother ions in each vial were analyzed with API 150EX™ mass spectrometer (Applied Biosystems, Foster City, Calif.) and quantified using the ANALYST™ program.
The hKBBM assay was also performed in the presence of valinepyrrolidide, a DPP-IV inhibitor.

Recombinant DPP-IV [3] = target: T2, Recombinant DPP-IV; parameters: purchased Chemicon International, Inc., Temecula, Calif; settings: Leiting et al. (2003); read-out: DPP-IV IC50, published value; cited from earlier work

CC[C@H](C)[C@H](NC(=O)[C@H](Cc1ccccc1)NC(=O)[C@H](CCC(=O)O)NC(=O)[C@H](CCCCN)NC(=O)[C@H](C)NC(=O)[C@H](C)NC(=O)[C@H](CCC(N)=O)NC(=O)CNC(=O)[C@H](CCC(=O)O)NC(=O)[C@H](CC(C)C)NC(=O)[C@H](Cc1ccc(O)cc1)NC(=O)[C@H](CO)NC(=O)[C@H](CO)NC(=O)[C@@H](NC(=O)[C@H](CC(=O)O)NC(=O)[C@H](CO)NC(=O)[C@@H](NC(=O)[C@H](Cc1ccccc1)NC(=O)[C@@H](NC(=O)CNC(=O)[C@H](CCC(=O)O)NC(=O)[C@H](C)NC(=O)[C@@H](N)Cc1c[nH]cn1)[C@@H](C)O)[C@@H](C)O)C(C)C)C(=O)N[C@@H](C)C(=O)N[C@@H](Cc1c[nH]c2ccccc12)C(=O)N[C@@H](CC(C)C)C(=O)N[C@H](C(=O)N[C@@H](CCCCN)C(=O)NCC(=O)N[C@@H](CCCNC(=N)N)C(=O)NCC(=O)NCCCC(=O)NCCCC[C@H](NC(=O)[C@@H]1CCC(=O)N1)C(=O)N[C@@H](Cc1c[nH]c2ccccc12)C(=O)N[C@@H](C)C(=O)N1CCC[C@H]1C(=O)O)C(C)C [3633/38, GLP-1-(7-37)-γ-Abu-N^ε2Lys-(Pyr)-WAP-OH]
IC50 (ACE from rabbit lung): > 10 µM

CC[C@H](C)[C@H](NC(=O)[C@H](Cc1ccccc1)NC(=O)[C@H](CCC(=O)O)NC(=O)[C@H](CCCCN)NC(=O)[C@H](C)NC(=O)[C@H](C)NC(=O)[C@H](CCC(N)=O)NC(=O)CNC(=O)[C@H](CCC(=O)O)NC(=O)[C@H](CC(C)C)NC(=O)[C@H](Cc1ccc(O)cc1)NC(=O)[C@H](CO)NC(=O)[C@H](CO)NC(=O)[C@@H](NC(=O)[C@H](CC(=O)O)NC(=O)[C@H](CO)NC(=O)[C@@H](NC(=O)[C@H](Cc1ccccc1)NC(=O)[C@@H](NC(=O)CNC(=O)[C@H](CCC(=O)O)NC(=O)[C@H](C)NC(=O)[C@@H](N)Cc1c[nH]cn1)[C@@H](C)O)[C@@H](C)O)C(C)C)C(=O)N[C@@H](C)C(=O)N[C@@H](Cc1c[nH]c2ccccc12)C(=O)N[C@@H](CC(C)C)C(=O)N[C@H](C(=O)N[C@@H](CCCCN)C(=O)NCC(=O)N[C@@H](CCCNC(=N)N)C(=O)NCC(=O)NCC(=O)NCC(=O)NCCCC[C@H](N)C(=O)N1CCSC1)C(C)C [Compound 4844, GLP-1-(7-37)-GG-(S)-2,6-diamino-1-(thiazolidin-3-yl)hexan-1-one amide]
DPP-IV catalyzed cleavage product ions (Recombinant DPP-IV [1]; incubation with DPP-IV): expected product ions were not observed

CC[C@H](C)[C@H](NC(=O)[C@H](Cc1ccccc1)NC(=O)[C@H](CCC(=O)O)NC(=O)[C@H](CCCCN)NC(=O)[C@H](C)NC(=O)[C@H](C)NC(=O)[C@H](CCC(N)=O)NC(=O)CNC(=O)[C@H](CCC(=O)O)NC(=O)[C@H](CC(C)C)NC(=O)[C@H](Cc1ccc(O)cc1)NC(=O)[C@H](CO)NC(=O)[C@H](CO)NC(=O)[C@@H](NC(=O)[C@H](CC(=O)O)NC(=O)[C@H](CO)NC(=O)[C@@H](NC(=O)[C@H](Cc1ccccc1)NC(=O)[C@@H](NC(=O)CNC(=O)[C@H](CCC(=O)O)NC(=O)[C@H](C)NC(=O)[C@@H](N)Cc1c[nH]cn1)[C@@H](C)O)[C@@H](C)O)C(C)C)C(=O)N[C@@H](C)C(=O)N[C@@H](Cc1c[nH]c2ccccc12)C(=O)N[C@@H](CC(C)C)C(=O)N[C@H](C(=O)N[C@@H](CCCCN)C(=O)NCC(=O)N[C@@H](CCCNC(=N)N)C(=O)NCC(=O)NCC(=O)NCC(=O)NCCCC[C@H](N)C(=O)N1CCSC1C#N)C(C)C (stereo partly drawn) [Compound 4845, GLP-1-(7-37)-GG-(S)-2,6-diamino-1-(thiazolidin-2-cyano-3-yl)hexan-1-one amide]
DPP-IV catalyzed cleavage product ions (Recombinant DPP-IV [1]): expected product ions were not observed

CC[C@H](C)[C@H](NC(=O)[C@H](Cc1ccccc1)NC(=O)[C@H](CCC(=O)O)NC(=O)[C@H](CCCCN)NC(=O)[C@H](C)NC(=O)[C@H](C)NC(=O)[C@H](CCC(N)=O)NC(=O)CNC(=O)[C@H](CCC(=O)O)NC(=O)[C@H](CC(C)C)NC(=O)[C@H](Cc1ccc(O)cc1)NC(=O)[C@H](CO)NC(=O)[C@H](CO)NC(=O)[C@@H](NC(=O)[C@H](CC(=O)O)NC(=O)[C@H](CO)NC(=O)[C@@H](NC(=O)[C@H](Cc1ccccc1)NC(=O)[C@@H](NC(=O)CNC(=O)[C@H](CCC(=O)O)NC(=O)[C@H](C)NC(=O)[C@H](Cc1c[nH]cn1)NC(=O)COCCOCCNC(=O)COCCOCCNC(=O)[C@@H]1CCCN1C(=O)[C@H](C)NC(CCc1ccccc1)C(=O)O)[C@@H](C)O)[C@@H](C)O)C(C)C)C(=O)N[C@@H](C)C(=O)N[C@@H](Cc1c[nH]c2ccccc12)C(=O)N[C@@H](CC(C)C)C(=O)N[C@H](C(=O)N[C@@H](CCCCN)C(=O)NCC(=O)N[C@@H](CCCNC(=N)N)C(N)=O)C(C)C (stereo partly drawn) [Compound 4984, (R,S)-1-[N^2-(1-carboxy-3-phenylpropyl)-L-ala]-L-pro-8-amino-3,6-dioxaoctanoyl-8-amino-3,6-dioxaoctanoyl-GLP-1-(7-36) amide]
glucose lowering in OGTT (FIGS. 7, 8) (NIH/Swiss mice; 2 hour fasted mice): retain the glucose-lowering activity of GLP-1 | duration of glucose lowering in OGTT (NIH/Swiss mice; 240 minutes sample): prolonged effect 4 hours after dosing | intact conjugate compound present [2]: greater than 80%

CCC(C)C(N)C(=O)N1CCCC1C(=O)NC(C(=O)O)C(C)CC (stereo not drawn) [Diprotin A, Ile-Pro-Ile]
IC50 (Recombinant DPP-IV [3]): 3.5 µM
